Laboratory results taken from patent US20210024542A1 (Torcept Therapeutics, Inc., priority 2018, published 2021).
Where two headings read alike, the source gives them in different places.

Key:
CaOV3 = test: OncoPanel cell proliferation assay, CaOV3; type: cell-based, human; details: for Relative cell count (%) Mean: CaOV3
Protocol: (§1) Cells were grown in RPMI 1640, 10% FBS, 2 mM L-alanyl-L-glutamine, 1 mM Na pyruvate, or a special medium. Cells were seeded into 384-well plates and incubated in a humidified atmosphere of 5% CO2 at 37° C. Compounds were added the day following cell seeding. At the same time, a time zero untreated cell plate was generated. After a 3-day incubation period, cells were fixed and stained to allow fluorescence imaging of nuclei. Compounds (1 mM stock solutions) were serially diluted in half-log steps from the highest test concentration ([…]), and assayed over 10 concentrations with a maximum assay concentration of 0.1% DMSO. Automated fluorescence microscopy was carried out using a Molecular Devices ImageXpress Micro XL high-content imager, and images were collected with a 4× objective. 16-bit TIFF images were acquired and analyzed with MetaXpress 5.1.0.41 software.
(§2) Cell proliferation was measured by the fluorescence intensity of an incorporated nuclear dye. The output is referred to as the relative cell count, where the measured nuclear intensity is transformed to percent of control (POC) using the following formula: […]
(§3) Cellular response parameters were calculated using nonlinear regression to a sigmoidal single-site dose response model:
(§4) Where y is a response measured at concentration x, A and B are the lower and upper limits of the response, C is the concentration at the response midpoint (EC50), and D is the Hill Slope (Ref. 1).
(§5) EC50 is the test compound concentration at the curve inflection point or half the effective response (parameter C of the fitted curve solution). GI50 is the concentration needed to reduce the observed growth by half (midway between the curve maximum and the time zero value). “Cell Count Activity Area” is an estimate of the integrated area above the curve (Barretina, et al. The Cancer Cell Line Encyclopedia enables predictive modelling of anticancer drug sensitivity. Nature 483: 603-607). […] In rare instances, values <0 or >10 may be observed. […] Curve-fitting, calculations, and report generation was performed using a custom data reduction engine and MathIQ based software (AIM).

RKOE6 = test: OncoPanel cell proliferation assay, RKOE6; details: for Relative cell count (%) Mean: RKOE6
Protocol: Cells were seeded into 384-well plates and incubated in a humidified atmosphere of 5% CO2 at 37° C. Compounds were added the day following cell seeding. At the same time, a time zero untreated cell plate was generated. After a 3-day incubation period, cells were fixed and stained to allow fluorescence imaging of nuclei. Compounds (1 mM stock solutions) were serially diluted in half-log steps from the highest test concentration (1 micromol), and assayed over 10 concentrations with a maximum assay concentration of 0.1% DMSO. Automated fluorescence microscopy was carried out using a Molecular Devices ImageXpress Micro XL high-content imager, and images were collected with a 4× objective. 16-bit TIFF images were acquired and analyzed with MetaXpress 5.1.0.41 software.

Hs 729 = test: OncoPanel cell proliferation assay, Hs 729; type: cell-based, human; details: for Relative cell count (%) Mean: Hs 729
Protocol: as §1, §2, §3, §4, §5

T24 = test: OncoPanel cell proliferation assay, T24; type: cell-based, human; details: for Relative cell count (%) Mean: T24
Protocol: as §1, §2, §3, §4, §5

NCI-H510A = test: OncoPanel cell proliferation assay, NCI-H510A; type: cell-based, human
Protocol: as §1, §2, §3, §4, §5

A388 = test: OncoPanel cell proliferation assay, A388; type: cell-based, human; details: for Relative cell count (%) Mean: A388
Protocol: as §1, with “Cells” for “Cells were grown in RPMI 1640, 10% FBS, 2 mM L-alanyl-L-glutamine, 1 mM Na pyruvate, or a special medium. Cells”
as §2, §3, §4
GI50 is the concentration needed to reduce the observed growth by half (midway between the curve maximum and the time zero value). […] In rare instances, values <0 or >10 may be observed. […] Curve-fitting, calculations, and report generation was performed using a custom data reduction engine and MathIQ based software (AIM).

CO[C@H]1C[C@@H]2CC[C@@H](C)[C@@](O)(O2)C(=O)C(=O)N2CCCC[C@H]2C(=O)O[C@H]([C@H](C)C[C@@H]2C[C@@H]3C[C@H]2C[C@H]3O)CC(=O)[C@H](C)/C=C(\C)[C@@H](O)[C@@H](OC)C(=O)[C@H](C)C[C@H](C)/C=C/C=C/C=C/1C [Formula I, 37R-hydroxynorbornylrapamycin]
Relative cell count (%) Mean (CaOV3; 1.00E+00 microM): 54.4%
Relative cell count (%) Mean (CaOV3; 1.00E−01 microM): 58.3%
Relative cell count (%) Mean (CaOV3; 1.00E−02 microM): 64.8%
Relative cell count (%) Mean (CaOV3; 1.00E−03 microM): 75.3%
Relative cell count (%) Mean (CaOV3; 1.01E−04 microM): 91.0%
Relative cell count (%) Mean (CaOV3; 3.16E−01 microM): 57.1%
Relative cell count (%) Mean (CaOV3; 3.17E−02 microM): 59.5%
Relative cell count (%) Mean (CaOV3; 3.17E−03 microM): 68.5%
Relative cell count (%) Mean (CaOV3; 3.18E−04 microM): 85.0%
Relative cell count (%) Mean (CaOV3; 3.18E−05 microM): 92.8%
EC50 (CaOV3; Homo sapiens, Caov-3, 72 h, CaOV3, 3-day incubation, read-out: Cell Count EC50): 0.976 nM
GI50 (CaOV3; Homo sapiens, Caov-3, 72 h, CaOV3, 3-day incubation, read-out: Cell Count GI50): 9.68 nM
IC50 (CaOV3; Homo sapiens, Caov-3, 72 h, CaOV3, 3-day incubation, read-out: Cell Count IC50): > 1000 nM
EC50 (RKOE6; Homo sapiens, RKOE6, 72 h, read-out: Cell Count EC50): 0.201 nM
GI50 (RKOE6; Homo sapiens, RKOE6, 72 h, read-out: Cell Count GI50): 1.07 nM
IC50 (RKOE6; Homo sapiens, RKOE6, 72 h, read-out: Cell Count IC50): 2.88 nM
Cell Count Activity Area (RKOE6; RKOE6, scale 0-10): 4.44
Relative cell count (%) Mean (RKOE6; 1.00E+00 microM): 41.6%
Relative cell count (%) Mean (RKOE6; 1.00E−01 microM): 43.0%
Relative cell count (%) Mean (RKOE6; 1.00E−02 microM): 47.6%
Relative cell count (%) Mean (RKOE6; 1.00E−03 microM): 55.7%
Relative cell count (%) Mean (RKOE6; 1.01E−04 microM): 73.6%
Relative cell count (%) Mean (RKOE6; 3.16E−01 microM): 41.0%
Relative cell count (%) Mean (RKOE6; 3.17E−02 microM): 42.9%
Relative cell count (%) Mean (RKOE6; 3.17E−03 microM): 52.5%
Relative cell count (%) Mean (RKOE6; 3.18E−04 microM): 66.1%
Relative cell count (%) Mean (RKOE6; 3.18E−05 microM): 92.5%
EC50 (Hs 729; Homo sapiens, 72 h, Hs 729, 3-day incubation, read-out: Cell Count EC50): 14.1 nM
GI50 (Hs 729; Homo sapiens, 72 h, Hs 729, 3-day incubation, read-out: Cell Count GI50): 17.3 nM
IC50 (Hs 729; Homo sapiens, 72 h, Hs 729, 3-day incubation, read-out: Cell Count IC50): > 1000 nM
Cell Count Activity Area (Hs 729; Hs 729, scale 0-10): 1.80
Relative cell count (%) Mean (Hs 729; 1.00E+00 microM): 65.5%
Relative cell count (%) Mean (Hs 729; 1.00E−01 microM): 69.6%
Relative cell count (%) Mean (Hs 729; 1.00E−02 microM): 79.6%
Relative cell count (%) Mean (Hs 729; 1.00E−03 microM): 87.3%
Relative cell count (%) Mean (Hs 729; 1.01E−04 microM): 95.7%
Relative cell count (%) Mean (Hs 729; 3.16E−01 microM): 63.1%
Relative cell count (%) Mean (Hs 729; 3.17E−02 microM): 76.9%
Relative cell count (%) Mean (Hs 729; 3.17E−03 microM): 79.1%
Relative cell count (%) Mean (Hs 729; 3.18E−04 microM): 87.7%
Relative cell count (%) Mean (Hs 729; 3.18E−05 microM): 91.5%
EC50 (T24; Homo sapiens, T-24, 72 h, T24, 3-day incubation, read-out: Cell Count EC50): 0.102 nM
GI50 (T24; Homo sapiens, T-24, 72 h, T24, 3-day incubation, read-out: Cell Count GI50): 0.475 nM
IC50 (T24; Homo sapiens, T-24, 72 h, T24, 3-day incubation, read-out: Cell Count IC50): 0.905 nM
Cell Count Activity Area (T24; T24, scale 0-10): 4.92
Relative cell count (%) Mean (T24; 1.00E+00 microM): 38.7%
Relative cell count (%) Mean (T24; 1.00E−01 microM): 41.3%
Relative cell count (%) Mean (T24; 1.00E−02 microM): 43.9%
Relative cell count (%) Mean (T24; 1.00E−03 microM): 49.5%
Relative cell count (%) Mean (T24; 1.01E−04 microM): 68.7%
Relative cell count (%) Mean (T24; 3.16E−01 microM): 37.1%
Relative cell count (%) Mean (T24; 3.17E−02 microM): 42.0%
Relative cell count (%) Mean (T24; 3.17E−03 microM): 46.0%
Relative cell count (%) Mean (T24; 3.18E−04 microM): 57.0%
Relative cell count (%) Mean (T24; 3.18E−05 microM): 84.1%
Relative cell count (%) Mean (NCI-H510A; 1.00E+00 microM): 66.2%
Relative cell count (%) Mean (NCI-H510A; 1.00E−01 microM): 62.8%
Relative cell count (%) Mean (NCI-H510A; 1.00E−02 microM): 69.5%
Relative cell count (%) Mean (NCI-H510A; 1.00E−03 microM): 68.9%
Relative cell count (%) Mean (NCI-H510A; 1.01E−04 microM): 77.7%
Relative cell count (%) Mean (NCI-H510A; 3.16E−01 microM): 66.3%
Relative cell count (%) Mean (NCI-H510A; 3.17E−02 microM): 64.7%
Relative cell count (%) Mean (NCI-H510A; 3.17E−03 microM): 72.2%
Relative cell count (%) Mean (NCI-H510A; 3.18E−04 microM): 70.5%
Relative cell count (%) Mean (NCI-H510A; 3.18E−05 microM): 75.7%
EC50 (NCI-H510A; Homo sapiens, 72 h, 3-day incubation, read-out: Cell Count EC50): 0.00399 nM
GI50 (NCI-H510A; Homo sapiens, 72 h, 3-day incubation, read-out: Cell Count GI50): 0.83 nM
IC50 (NCI-H510A; Homo sapiens, 72 h, 3-day incubation, read-out: Cell Count IC50): > 1000 nM
EC50 (NCI-H510A; Homo sapiens, Table 4 summary, Small cell lung cancer, read-out: EC50): 0.004 nM
Cell Count Activity Area (NCI-H510A; scale 0-10): 3.05
Cell Count Activity Area (A388; A388, scale 0-10): 3.22
Relative cell count (%) Mean (A388; 1.00E+00 microM): 53.8%
Relative cell count (%) Mean (A388; 1.00E−01 microM): 62.3%
Relative cell count (%) Mean (A388; 1.00E−02 microM): 63.3%
Relative cell count (%) Mean (A388; 1.00E−03 microM): 69.1%
Relative cell count (%) Mean (A388; 1.01E−04 microM): 77.9%
Relative cell count (%) Mean (A388; 3.16E−01 microM): 59.0%
Relative cell count (%) Mean (A388; 3.17E−02 microM): 59.6%
Relative cell count (%) Mean (A388; 3.17E−03 microM): 67.1%
Relative cell count (%) Mean (A388; 3.18E−04 microM): 76.3%
Relative cell count (%) Mean (A388; 3.18E−05 microM): 89.9%
EC50 (A388; Homo sapiens, 72 h, A388, 3-day incubation, read-out: Cell Count EC50): 0.19 nM
GI50 (A388; Homo sapiens, 72 h, A388, 3-day incubation, read-out: Cell Count GI50): 50.7 nM
IC50 (A388; Homo sapiens, 72 h, A388, 3-day incubation, read-out: Cell Count IC50): > 1000 nM
